Reference: patent US8546343B2, “Aminoglycoside antibiotics targeting bacterial 16S ribosomal RNA” (Eidgenoessische Technische Hochschule Zurich, priority 2007, dated 2013)
≈ marks a conversion by molar mass, not a printed value.

Experiments:
[1] = tested on: AG014 Staph. epi. clinical isolate; assay: Standard MIC assay, AG014; type: cell-based, Staphylococcus epidermidis
Description: (§1) Selected compounds of the present invention were tested for antibiotic susceptibility using clinical isolates of Staphylococci, Enterococci and Escherichia coli as well as strains carrying defined resistance determinants and compared to well known antibiotics of the state of the art. Drug susceptibility was determined in standard MIC assays, i.e. by determination of the minimal drug concentration required to inhibit bacterial growth in vitro.

[2] = tested on: AG011 Staph. aureus clinical isolate; assay: Standard MIC assay, AG011; type: cell-based, Staphylococcus aureus
Description: as §1

[3] = tested on: AG006 E. coli BM13; assay: Standard MIC assay, AG006; type: cell-based, Escherichia coli
Description: as §1

[4] = tested on: AG008 E. coli BM13 (ANT2″); assay: Standard MIC assay, AG008; type: cell-based, Escherichia coli; details: E. coli BM13 (ANT2″)
Description: as §1

[5] = tested on: AG009 E. coli BM13 AAC(6′)-1B; assay: Standard MIC assay, AG009; type: cell-based, Escherichia coli; details: E. coli BM13 AAC(6′)-1B
Description: as §1

[6] = tested on: AG015 S. aureus BM3002 (ANT4′); assay: Standard MIC assay, AG015; type: cell-based, Staphylococcus aureus; details: S. aureus BM3002 (ANT4′)
Description: as §1

[7] = tested on: M. smegmatis ΔrrnB 1408G (16S rRNA position 1408 G, eukaryotic cytosolic ribosomes); assay: MIC, recombinant M. smegmatis with mutant ribosomes 1408G; type: cell-based, Mycobacterium smegmatis; details: M. smegmatis ΔrrnB 1408G mutant ribosomes; 72 h at 37° C.
Excerpt: (§2) The strain used for introduction/selection of mutational alterations was a genetically modified derivative of Mycobacterium smegmatis carrying a single functional chromosomal rRNA operon (Sander et al. Mol. Microbiol. 1996, 22: 841-848). This strain, termed M. smegmatis rrn^−, allowed for the selection of mutational rRNA gene alterations using a plasmid carrying the rRNA gene with the respective mutational alteration.)
(§3) The rRNA gene carried on the plasmid encodes either the complete rRNA operon (Prammananan et al. Antimicrob. Agents Chemother. 1999, 43: 447-453) or a non-functional rRNA gene fragment of approximately 1.0 kb (Pfister et al. Antimicrob. Agents Chemother. 2003, 47: 1496-1502). PCR-mutagenesis in vitro was used to generate the mutagenized rRNA gene fragment. In the case of a partial rRNA gene fragment the mutagenized rRNA gene fragment was cloned into vectors pMV261 or pMV361 (Sander et al. Mol. Microbiol. 2002, 46: 1295-1304; Pfister et al. Antimicrob. Agents Chemother. 2003, 47: 1496-1502) to result in vectors carrying a partial rRNA gene fragment of approximately 1.0 kb with the mutational alteration introduced. In the case of plasmids carrying the complete rRNA operon the mutagenized rRNA gene fragment obtained by PCR was cloned into vectors pMV361 rRNA or pMV261 rRNA using appropriate restriction sites (Prammananan et al. Antimicrob. Agents Chemother. 1999, 43: 447-453). Vectors pMV361 rRNA and pMV261 rRNA carried a complete copy of the rRNA operon from M. smegmatis (Sander et al. Mol. Microbiol. 1997, 26: 469-480). Introduction of mutations into the plasmid encoded rRNA was confirmed by sequencing.
(§4) The single rRNA allelic derivative of M. smegmatis, i.e. M. smegmatis rrn, was used for transformation of the plasmids. The strain was made electro-competent and transformed according to standard techniques and as described previously (Sander et al. Mol. Microbiol. 1997, 26: 469-484). Following primary selection, the plasmid-encoded mutational rRNA gene alteration was transferred into the single chromosomal rRNA operon by means of RecA-mediated homologous recombination (Prammananan at al. Antimicrob. Agents Chemother. 1999, 43: 447-453). Introduction of the mutational rRNA gene alteration into the single functional chromosomal rRNA operon by gene conversion was confirmed by sequence determination.
(§5) Ribosomal drug susceptibility was studied by determining the minimal inhibitory concentrations, as described in detail in Pfister et al. 2003 and 2005 (see above).
(§6) The recombinants carrying the respective mutational alterations in the functional rRNA operon were colony-purified and subjected to determinations of minimal inhibitory concentrations (MIC) to determine ribosomal drug susceptibility. Cultures from single colonies were grown in LB medium supplemented with 0.05% Tween 80 and used for MIC tests in a microtiter plate format. Starting cultures contained 200 μl of bacterial cells at an optical density of 0.025 at 600 nm, and the respective drug was added in twofold series of dilution.
(§7) Key nucleotides which distinguish the prokaryotic from the eukaryotic decoding site are 16S rRNA positions 1408 (bacterial ribosome: A, eukaryotic cytosolic ribosomes: G) and 1491 (bacterial ribosomes: G, eukaryotic cytosolic ribosomes: A, eukaryotic mitochondrial ribosome: C).

[8] = tested on: AG017 E. faecalis JH2-2; assay: Standard MIC assay, AG017; type: cell-based, Enterococcus faecalis
Description: as §1

[9] = tested on: M. smegmatis ΔrrnB 1491A (16S rRNA position 1491 A, eukaryotic cytosolic ribosomes); assay: MIC, recombinant M. smegmatis with mutant ribosomes 1491A; type: cell-based, Mycobacterium smegmatis; details: M. smegmatis ΔrrnB 1491A mutant ribosomes; 72 h at 37° C.
Excerpt: as §2, §3, §4, §5, §6, §7

[10] = tested on: AG007 E. coli BM13 (AAC3); assay: Standard MIC assay, AG007; type: cell-based, Escherichia coli; details: E. coli BM13 (AAC3)
Description: as §1

[11] = tested on: AG016 S. aureus BM3002; assay: Standard MIC assay, AG016; type: cell-based, Staphylococcus aureus
Description: as §1

[12] = tested on: AG019 E. faecalis JH2-2 (APH2″ AAC6′); assay: Standard MIC assay, AG019; type: cell-based, Enterococcus faecalis; details: E. faecalis JH2-2 (APH2″ AAC6′)
Description: as §1

[13] = tested on: AG004 E. coli clinical isolate; assay: Standard MIC assay, AG004; type: cell-based, Escherichia coli
Description: as §1

[14] = tested on: M. smegmatis ΔrrnB (bacterial ribosomes); assay: MIC, recombinant M. smegmatis with bacterial (wild-type) ribosomes; type: cell-based, Mycobacterium smegmatis; details: 72 h at 37° C.
Excerpt: as §2, §3, §4, §5, §6, §7

[15] = tested on: AG013 Staph. epi. clinical isolate; assay: Standard MIC assay, AG013; type: cell-based, Staphylococcus epidermidis
Description: as §1

[16] = tested on: M. smegmatis ΔrrnB 1491C (16S rRNA position 1491 C, eukaryotic mitochondrial ribosome); assay: MIC, recombinant M. smegmatis with mutant ribosomes 1491C; type: cell-based, Mycobacterium smegmatis; details: M. smegmatis ΔrrnB 1491C mutant ribosomes; 72 h at 37° C.
Excerpt: as §2, §3, §4, §5, §6, §7

[17] = tested on: AG001 E. coli clinical isolate; assay: Standard MIC assay, AG001; type: cell-based, Escherichia coli
Description: as §1

[18] = tested on: AG002 E. coli clinical isolate; assay: Standard MIC assay, AG002; type: cell-based, Escherichia coli
Description: as §1

[19] = tested on: AG003 E. coli clinical isolate; assay: Standard MIC assay, AG003; type: cell-based, Escherichia coli
Description: as §1

| Structure (SMILES) | Minimal inhibitory concentrations AG014 [1] [µg/mL] | Minimal inhibitory concentrations AG011 [2] [µg/mL] | Minimal inhibitory concentrations AG006 [3] [µg/mL] | Minimal inhibitory concentrations AG008 [4] [µg/mL] | Minimal inhibitory concentrations AG009 [5] [µg/mL] | Minimal inhibitory concentrations AG015 [6] [µg/mL] | minimal inhibitory concentrations ΔrrnB 1408G [7] | Minimal inhibitory concentrations AG017 [8] [µg/mL] | minimal inhibitory concentrations ΔrrnB 1491A [9] | Minimal inhibitory concentrations AG007 [10] [µg/mL] | Minimal inhibitory concentrations AG016 [11] [µg/mL] | Minimal inhibitory concentrations AG019 [12] [µg/mL] | Minimal inhibitory concentrations AG004 [13] [µg/mL] | minimal inhibitory concentrations ΔrrnB [14] [µg/mL] | Minimal inhibitory concentrations AG013 [15] [µg/mL] | minimal inhibitory concentrations ΔrrnB 1491C [16] [µg/mL] | Minimal inhibitory concentrations AG001 [17] [µg/mL] | Minimal inhibitory concentrations AG002 [18] [µg/mL] | Minimal inhibitory concentrations AG003 [19] [µg/mL] |
| --- | --- | --- | --- | --- | --- | --- | --- | --- | --- | --- | --- | --- | --- | --- | --- | --- | --- | --- | --- |
| NC[C@@H]1O[C@H](O[C@H]2[C@@H](O)[C@H](O[C@@H]3[C@@H](O)[C@H](N)C[C@H](N)[C@H]3O[C@H]3O[C@@H]4CO[C@@H](c5ccc(Cl)cc5)O[C@H]4[C@H](O)[C@H]3N)O[C@@H]2CO)[C@H](N)[C@@H](O)[C@@H]1O [Compound 5.8, 4′,6′-O-p-Chlorobenzylideneparomomycin] | 8 to 16 | 4 to 8 | 64 (≈ 86.7 µM) | 64 (≈ 86.7 µM) | 64 (≈ 86.7 µM) | 16 (≈ 21.7 µM) | >512 µg/mL | 16 to 32 | >512 µg/mL | 64 (≈ 86.7 µM) | 8 (≈ 10.8 µM) | 64 (≈ 86.7 µM) | 16 to 32 | 4 | 8 (≈ 10.8 µM) | >512 | 32 (≈ 43.3 µM) |  |  |
| NC[C@@H]1O[C@H](O[C@H]2[C@@H](O)[C@H](O[C@@H]3[C@@H](O)[C@H](N)C[C@H](N)[C@H]3O[C@H]3O[C@@H]4CO[C@@H](c5ccc6ccccc6c5)O[C@H]4[C@H](O)[C@H]3N)O[C@@H]2CO)[C@H](N)[C@@H](O)[C@@H]1O [Compound 5.20, 4′,6′-O-2-Naphthylideneparomomycin] | 1 (≈ 1.33 µM) | 1 to 2 | 8 to 16 | 16 (≈ 21.2 µM) | 16 to 32 | 8 to 16 | >512 µg/mL | 8 to 16 | 512 µg/mL | 16 to 32 | 4 (≈ 5.31 µM) | 8 to 16 | 8 (≈ 10.6 µM) | 2 to 4 | 1 (≈ 1.33 µM) | 512 | 8 (≈ 10.6 µM) |  |  |
| NC[C@@H]1O[C@H](O[C@H]2[C@@H](O)[C@H](O[C@@H]3[C@@H](O)[C@H](N)C[C@H](N)[C@H]3O[C@H]3O[C@H](CO)[C@@H](OCCCc4ccccc4)[C@H](O)[C@H]3N)O[C@@H]2CO)[C@H](N)[C@@H](O)[C@@H]1O [Compound 19c, 4′-p-(3-phenylpropyl)paromomycin] | 2 (≈ 2.73 µM) |  | 8 to 16 | 8 to 16 | 32 (≈ 43.6 µM) | 16 (≈ 21.8 µM) | ≧512 μg/ml | 8 to 16 | ≧512 μg/ml | 8 to 16 | 4 (≈ 5.45 µM) | 32 (≈ 43.6 µM) | 16 (≈ 21.8 µM) | 8 to 16 | 4 to 8 | 512 | 16 to 32 | 16 (≈ 21.8 µM) | 8 to 16 |
